Like-named read-outs stand apart in the source and are kept apart here. Where no end group is shown, it is not given here.
Tests used:
bacteria strains = assay: NCCLS microdilution broth assay, minimal bactericidal concentration (MBC); format: cell-based; conditions: compared with MIC (<64 μg/ml) of the susceptible strains
Description: (§1) According to the NCCLS guidelines for susceptibility test of novel antimicrobial compounds, we found a broad spectrum of activity of Cat1 (Methods for Dilution Antimicrobial Susceptibility Tests for Bacteria That Grow Aerobically; Approved Standard-Fifth Edition. NCCLS document M7-A5 (ISBN1-56238-394-9)).

[1] = system: Klebsiella pneumoniae (DSM681); format: cell-based
Description: as §1
(§2) The antimicrobial activity of the polypeptides of the invention was analyzed using the Microdilution Broth Assay (see Example 1) with Mueller Hinton Broth (MHB) media. Four different bacterial strains were tested in this setup; Micrococcus luteus (ATCC 9341), Pseudomonas aeruginosa (ATCC 27853), Escherichia coli (ATCC 10536) and Klebsiella pneumoniae (DSM681). The amino acid sequence of the polypeptides and the Minimal Inhibitory concentrations (MIC, microgram/ml) obtained is presented in Table 7 below.

[2] = system: Enterococcus faecalis (DSM2570); assay: Radial diffusion assay (MEC); format: cell-based; conditions: susceptible species
Description: (§3) A modified version of a previously published protocol has been applied in the detection of antimicrobial activity (Lehrer et al., (1991) Ultra sensitive assays for endogenous antimicrobial polypeptides J Immunol Methods 137: 167-173). Target bacteria (10^6 colony forming units (CFU)) were added to 10 ml of underlay agarose (1% low electro-endosmosis agarose, 0.03% Trypticase soy broth, 10 mM sodium phosphate, pH 7.4, 37 degrees Celsius). Suspension was solidified on an INTEGRID Petri Dish (Becton Dickinson Labware). A 3 mm Gel Puncher was used to make holes in the underlay agarose (Amersham Pharmacia Biotech, Sweden). Samples were added to the holes and incubated at 37 degrees Celsius, 3 hours. An overlay was poured on top and the plate was incubated overnight (LB media, 7.5% Agar). Antimicrobial activity was seen as bacterial clearing zones around the wells. Living cells was counterstained by adding 10 ml, 0.2 mM MTT (3-(4,5-Dimethylthiazol-2-yl)-2,5-diphenyltetrazolium bromide Thiazolyl blue).

[3] = system: Bacillus subtilis (ATCC6633); assay: Radial diffusion assay (MEC); format: cell-based; conditions: susceptible species
Description: as §3

[4] = system: Salmonella choleraesuis (DSM9220); format: cell-based
Description: as §1

Escherichia coli Top10 = assay: Radial Diffusion Assay using minimal conditions (MEC); format: cell-based; conditions: Table 8
Description: as §3
(§4) The antimicrobial activity of the polypeptides of the invention was also analyzed in a Radial Diffusion Assay (see Example 1) using minimal conditions. Two bacterial strains were tested in this setup; Staphylococcus camosus and Escherichia coli Top10. The amino acid sequence of the polypeptides and the Minimal Effective Concentration (MEC, microgram/ml) obtained is presented in table 8 below.

Staphylococcus camosus = assay: as above; format: cell-based; conditions: Table 8
Description: as §3, §4

[5] = system: Pseudomonas aeroginosa (ATCC27853); format: cell-based, Pseudomonas aeruginosa
Description: as §1
(§5) In another campaign, the specific MICs of Cat1 were determined against a variety of microbial strains relevant for wound infections. As recommended in the above-mentioned NCCLS protocol, the strains were grown in cationic adjusted Muller-Hinton Broth. The highest concentration tested was 32 μg/ml.
Minimal inhibitory concentrations of Cat1 were also determined using cation-adjusted Mueller hinton broth (MHB) in the microbroth dilution assay, wherein MHB was used with different modifications as depicted in Table 2 below. The selected test organism was Pseudomonas aeroginosa (ATCC 27853). […]

[6] = system: Acinetobacter baumanii ATCC 49137; format: cell-based
Description: as §1, §5

[7] = system: Staphylococcus epidermidis ATCC 12228; format: cell-based
Description: as §1, §5

[8] = system: Escherichia coli ATCC 25922; format: cell-based
Description: as §1, §5

[9] = system: Citrobacter freundii ATCC 11811; format: cell-based
Description: as §1, §5

[10] = system: Streptotoccus pyogenes ATCC 4543; format: cell-based
Description: as §1, §5

[11] = system: Morganella morganii ATCC 21116; format: cell-based
Description: as §1, §5

[12] = system: Streptococcus agalactiae ATCC 624; format: cell-based
Description: as §1, §5

[13] = system: Staphylococcus aureus (MSSA) ATCC 25923; format: cell-based
Description: as §1, §5

[14] = system: Bordetella bronchiseptica ATCC 14064; format: cell-based
Description: as §1, §5

[15] = system: Stenotrophomonas maltophilia ATCC 12714; format: cell-based
Description: as §1, §5

[16] = system: Aerococcus viridans ATCC 700406; format: cell-based
Description: as §1, §5

[17] = system: Klebsiella pneumoniae ATCC 29995; format: cell-based
Description: as §1, §5

[18] = system: Streptococcus pneumoniae ATCC 10015; format: cell-based
Description: as §1, §5

[19] = system: Staphyloloccus aureus GISA ATCC 700699; format: cell-based
Description: as §1, §5

[20] = system: Klepsiella pneumoniae (ATCC10031); assay: NCCLS microdilution broth assay (MIC); format: cell-based; conditions: susceptible strain, NCCLS guidelines
Description: as §1

[21] = system: Enterococcus faecalis (DSM2570); assay: NCCLS microdilution broth assay (MIC); format: cell-based; conditions: susceptible strain, NCCLS guidelines
Description: as §1

[22] = system: Staphylococcus epidermidis (DSM1798); assay: NCCLS microdilution broth assay (MIC); format: cell-based; conditions: susceptible strain, NCCLS guidelines
Description: as §1

[23] = system: Bortadella bronchiseptica (ATCC4617); assay: NCCLS microdilution broth assay (MIC); format: cell-based; conditions: susceptible strain, NCCLS guidelines
Description: as §1

[24] = system: Proteus mirabilis (ATCC7002); assay: NCCLS microdilution broth assay (MIC); format: cell-based; conditions: susceptible strain, NCCLS guidelines
Description: as §1

[25] = system: Bacillus subtilis (ATCC6633); assay: NCCLS microdilution broth assay (MIC); format: cell-based; conditions: susceptible strain, NCCLS guidelines
Description: as §1

[26] = system: Micrococcus luteus (ATCC9341); format: cell-based; conditions: susceptible strain, NCCLS guidelines
Description: as §1, §5, §2

[27] = system: Eschericia coil (ATCC10536); format: cell-based, Escherichia coli
Description: as §1, §2

[28] = susceptible strain, NCCLS guidelines

**Q.** Which “Minimal bactericidal concentration (MBC)” value (bacteria strains) does the source give for “GLLRRLRKKIGKKLKKIGQKIKPIRILVP [SEQ ID NO: 3]” here?
**A.** The value was “in a similar range”.

**Q.** What about the MIC [1] of the same sequence?
**A.** Its MIC is 32 to 64 µg/mL.

**Q.** What about the “Minimal Effective Concentration (MEC)” value [2] of the same sequence?
**A.** The value was less than 64 µg/mL.

**Q.** What about the “Minimal Effective Concentration (MEC)” value [3] of the same sequence?
**A.** The value was less than 64 µg/mL.

**Q.** What about the MIC [4] of the same sequence?
**A.** The MIC was less than 64 µg/mL.

**Q.** And the MEC (Escherichia coli Top10)?
**A.** Its MEC is 8.5 µg/mL.

**Q.** And the MEC (Staphylococcus camosus)?
**A.** The MEC was 2.5 µg/mL.

**Q.** And the MIC ([5]; ATCC27853, pH 5.5)?
**A.** Its MIC is 6 µg/mL.

**Q.** What about the MIC ([5]; ATCC27853, pH 6.5) of the same sequence?
**A.** The MIC was 6 µg/mL.

**Q.** What about the MIC [5, 28] of the same sequence?
**A.** The MIC was less than 64 µg/mL.

**Q.** What about the MIC [6] of the same sequence?
**A.** The MIC was 8 µg/mL.

**Q.** And the MIC [7]?
**A.** Its MIC is 4 µg/mL.

**Q.** What about the MIC [8] of the same sequence?
**A.** Its MIC is 1.5 µg/mL.

**Q.** And the MIC [9]?
**A.** Its MIC is 1.5 µg/mL.

**Q.** And the MIC [10]?
**A.** The MIC was 1.5 µg/mL.

**Q.** What about the MIC [11] of the same sequence?
**A.** Its MIC is 1.5 µg/mL.

**Q.** And the MIC [12]?
**A.** The MIC was 16 µg/mL.

**Q.** What about the MIC [13] of the same sequence?
**A.** Its MIC is 32 µg/mL.

**Q.** And the MIC [14]?
**A.** The MIC was 0.5 µg/mL.

**Q.** And the MIC [15]?
**A.** The MIC was 1 µg/mL.

**Q.** And the MIC [16]?
**A.** The MIC was 0.5 µg/mL.

**Q.** What about the MIC [17] of the same sequence?
**A.** The MIC was 8 µg/mL.

**Q.** What about the MIC [18] of the same sequence?
**A.** Its MIC is 8 µg/mL.

**Q.** What about the MIC [19] of the same sequence?
**A.** The MIC was 32 µg/mL.

**Q.** And the MIC [20]?
**A.** The MIC was less than 64 µg/mL.

**Q.** And the MIC [21]?
**A.** The MIC was less than 64 µg/mL.

**Q.** And the MIC [22]?
**A.** The MIC was less than 64 µg/mL.

**Q.** What about the MIC [23] of the same sequence?
**A.** The MIC was less than 64 µg/mL.

**Q.** And the MIC [24]?
**A.** The MIC was less than 64 µg/mL.

**Q.** What about the MIC [25] of the same sequence?
**A.** Its MIC is less than 64 µg/mL.

**Q.** What about the MIC [26] of the same sequence?
**A.** The MIC was less than 64 µg/mL.

**Q.** And the MIC ([27]; ATCC10536)?
**A.** The MIC was 8 µg/mL.

**Q.** What about the MIC [27, 28] of the same sequence?
**A.** The MIC was less than 64 µg/mL.

Source: patent US7829524B2, “Antimicrobial peptides” (Novozymes Adenium Biotech A/S, priority 2003, dated 2010)
